Results taken from patent US12358960B2, “Selective targeting of ubiquitin- and ubiquitin-like E1-activating enzymes by structurally-stabilized peptides” (Dana-Farber Cancer Institute, Inc., priority 2019, dated 2025).
Bridge positions count the residues as written; N and C are the ends. Square brackets hold non-standard residues; d marks the D form. Peptide text beside a SMILES is read from it. R8 = C=CCCCCCC[C@@](C)(N)C(=O)O; S5 = C=CCCC[C@](C)(N)C(=O)O; Nle = CCCC[C@H](N)C(=O)O

Assays:
[1] = Circular dichroism, α-helicity; type: physicochemical; details: in solution
Procedure: Assays to Determine α-Helicity: Compounds are dissolved in an aqueous solution (e.g., 5 mM potassium phosphate solution at pH 7, or distilled H2O, to concentrations of 25-50 μM). Circular dichroism (CD) spectra are obtained on a spectropolarimeter (e.g., Jasco J-710, Aviv) using standard measurement parameters (e.g., temperature, 20° C.; wavelength, 190-260 nm; step resolution, 0.5 nm; speed, 20 nm/sec; accumulations, 10; response, 1 sec; bandwidth, 1 nm; path length, 0.1 cm). The α-helical content of each peptide is calculated by dividing the mean residue ellipticity by the reported value for a model helical decapeptide (Yang et al., Methods Enzymol. 130:208 (1986)).
Circular Dichroism: Acetylated peptides were dissolved in 10% (vol/vol) acetonitrile in water for circular dichroism analyses, performed on an Aviv Biomedical spectrophotometer, as reported (see Bird et. al., Methods in Enzymol., 446:369-386 (2008)).

native UBA1 = target: T1, native UBA1 (Homo sapiens, UniProt P22314); test: Streptavidin-biotin pull-down from HeLa cell lysate, western blot for UBA1; type: binding; details: biotinylated peptide
T1 construct: endogenous in cells; host or cells: HeLa cell lysate
T1 sequence (P22314 1-1058): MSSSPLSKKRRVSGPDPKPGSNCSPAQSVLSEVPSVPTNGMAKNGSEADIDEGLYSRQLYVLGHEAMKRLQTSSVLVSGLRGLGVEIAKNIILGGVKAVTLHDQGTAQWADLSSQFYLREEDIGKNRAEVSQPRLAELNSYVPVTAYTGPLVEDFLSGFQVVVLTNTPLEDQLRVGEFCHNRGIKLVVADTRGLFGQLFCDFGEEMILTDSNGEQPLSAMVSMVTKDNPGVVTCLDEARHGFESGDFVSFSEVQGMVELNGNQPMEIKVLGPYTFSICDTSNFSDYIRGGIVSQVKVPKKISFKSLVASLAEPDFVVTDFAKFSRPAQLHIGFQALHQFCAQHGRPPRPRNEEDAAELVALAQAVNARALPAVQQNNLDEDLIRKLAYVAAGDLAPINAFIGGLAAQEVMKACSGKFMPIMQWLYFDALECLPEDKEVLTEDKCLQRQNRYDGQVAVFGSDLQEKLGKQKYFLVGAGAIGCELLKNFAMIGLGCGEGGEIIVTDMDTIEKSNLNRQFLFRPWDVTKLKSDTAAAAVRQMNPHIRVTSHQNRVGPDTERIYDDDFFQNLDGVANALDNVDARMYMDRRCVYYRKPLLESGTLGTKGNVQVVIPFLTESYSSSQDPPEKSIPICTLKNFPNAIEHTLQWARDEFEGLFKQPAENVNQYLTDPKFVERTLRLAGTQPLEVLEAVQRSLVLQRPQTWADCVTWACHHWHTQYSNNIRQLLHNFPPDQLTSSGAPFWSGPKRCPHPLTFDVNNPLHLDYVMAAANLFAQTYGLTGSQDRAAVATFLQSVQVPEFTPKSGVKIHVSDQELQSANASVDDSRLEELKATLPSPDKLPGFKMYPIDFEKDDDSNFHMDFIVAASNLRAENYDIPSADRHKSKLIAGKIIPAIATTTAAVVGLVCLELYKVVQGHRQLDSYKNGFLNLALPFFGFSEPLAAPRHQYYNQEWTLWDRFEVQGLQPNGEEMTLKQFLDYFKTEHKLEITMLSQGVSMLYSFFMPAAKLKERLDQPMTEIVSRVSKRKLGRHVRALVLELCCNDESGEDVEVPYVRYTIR
Procedure: Streptavidin-biotin pull-down assays: For recombinant protein pull-downs, 10 pmol recombinant human UBA1 was incubated with 5 nmol C-terminally biotinylated SAH-UBE2A or DMSO vehicle control in a total volume of 1 mL binding buffer (50 mM NaCl, 20 mM HEPES, pH 7.4, 5 mM DTT) for 1.5 hours at 4° C. 30 μL of pre-equilibrated streptavidin agarose beads were then added and incubated for an additional 1.5 hours at 4° C. The beads were pelleted by centrifugation and washed three times with NP-40 buffer (20 mM HEPES, pH 7.4, 50 mM NaCl, 5 mM DTT, 0.5% [v/v] NP-40) before eluting the protein sample from the beads by heating at 70° C. for 10 min in 3×SDS loading buffer. Samples were subjected to electrophoresis and silver staining (Pierce 24612). […] Proteins were separated by SDS-PAGE gel electrophoresis and detected by western blot against UBE1 (Abcam ab34711). […] Conjugation of ubiquitin to E2 by E1 is monitored by conversion of free E2 (17 kDa) to E2˜ubiquitin conjugate (26 kDa). Quantitation of percent inhibition was calculated from densitometry of silver stain images. Error bars represent ±1 SEM calculated from three independent experiments.

In the case of `CCCC[C@H](NC(C)=O)C(=O)N[C@@H](CO)C(=O)N[C@H](C(=O)N1CCC[C@H]1C(=O)N[C@]1(C)CCCCCCC=CCCC[C@@](C)(C(=O)N[C@@H](Cc2ccccc2)C(=O)N[C@@H](CCCCN)C(=O)N[C@@H](CCCNC(=N)N)C(=O)N[C@@H](CC(C)C)C(=O)N[C@@H](CCC(N)=O)C(N)=O)NC(=O)[C@H](CCCNC(=N)N)NC(=O)[C@H](CCCC)NC(=O)[C@H](CC(C)C)NC(=O)[C@H](CCCNC(=N)N)NC(=O)[C@H](CCCNC(=N)N)NC(=O)[C@H](CCCNC(=N)N)NC1=O)[C@@H](C)O` [SAH-UBE2A-11, BSTPX1RRRLBRX2FKRLQ] (Ac-[Nle]STP[R8]RRRL[Nle]R[S5]FKRLQ-NH2; staple 5-12), the “helicity / helical content” value [1] is reported as 54% and the “direct binding to native UBA1 in HeLa cell lysate” value (native UBA1) is reported as “direct binding of SAH-UBE2A to native UBA1”.
